Common to all, as to type: biochemical
One assay has as its target PDE1A (PDE 1A3) (Homo sapiens, UniProt P54750). Nature of the assay: In vitro HTRF PDE1 inhibition assay (PDE1A). As to conditions: PDE1A (1A3); 100 nM cyclic GMP, calmodulin, 45 minutes at 37° C. The text has this:
(§1) An exemplary procedure for the in vitro Homogenous Time Resolved Fluorescence (HTRF) assay, which can be used to determine the inhibitory action of compounds of the invention toward PDE1 or its isoforms, follows.
(§2) The HTRF PDE1 assay utilized the HTRF technology, which is based on the competition between unlabeled cyclic nucleotide and cyclic nucleotide labeled with XL665 for the binding to cyclic nucleotide-specific antibody labeled with cryptate. The HTRF signal is thus inversely proportional to the concentration of cyclic nucleotide being measured. Since phosphodiesterases break down cyclic nucleotides the HTRF signal was used to determine PDE activity.
(§3) The Cisbio cGMP HTRF assay kit (Cat no: 62GM2PEC) was utilized. Cyclic GMP was diluted to 200 nM in HTRF assay buffer (1 mM CaCl2, 10 mM MgCl2, 10 mM Tris-HCl, 0.1% BSA, pH7.4). 10 μl of compound or DMSO was diluted in 200 nM cyclic GMP solution and added to wells of a 96 well white plate to give 100 nM cyclic GMP in 1% DMSO final concentration. PDE (1A3, 1B or 1C) was diluted to 2× working concentration in HTRF assay buffer with 4 μg/ml Calmodulin, and 10 μl was added to initiate the reaction. The plate was then incubated for 45 minutes at 37° C. d2-Labelled cyclic GMP and anti-cGMP cryptate were diluted in 50 mM phosphate buffer, 0.8M KF, 1% Triton X100, 0.2% BSA, pH7.0. Following incubation 10 μl d2-cGMP, then 10 μl anti cGMP cryptate were added to each well and the plate was incubated for 45 minutes at rt. The plate was then read on Perkin Elmer Victor at 2 different FRET readings ex/emm 340 nm/665 nm and 340 nm/615 nm.
(§4) Compounds having an IC50 of <1 μM, are denoted as +++. Compounds having an IC50 of 1-10 μM, are denoted as ++. Compounds having an IC50 of 10-100 μM, are denoted as +.

The target in a further assay is PDE1B (Homo sapiens, UniProt Q01064). Put plainly: In vitro HTRF PDE1 inhibition assay (PDE1B). To be noted: 100 nM cyclic GMP, calmodulin, 45 minutes at 37° C.
A further assay concerns the target PDE1C (Homo sapiens, UniProt Q14123). Put plainly: In vitro HTRF PDE1 inhibition assay (PDE1C).
From the text: as §1, §2, §3, §4

The structures appear in SMILES notation.

PDE1A (PDE 1A3), sequence (P54750 whole entry, canonical isoform): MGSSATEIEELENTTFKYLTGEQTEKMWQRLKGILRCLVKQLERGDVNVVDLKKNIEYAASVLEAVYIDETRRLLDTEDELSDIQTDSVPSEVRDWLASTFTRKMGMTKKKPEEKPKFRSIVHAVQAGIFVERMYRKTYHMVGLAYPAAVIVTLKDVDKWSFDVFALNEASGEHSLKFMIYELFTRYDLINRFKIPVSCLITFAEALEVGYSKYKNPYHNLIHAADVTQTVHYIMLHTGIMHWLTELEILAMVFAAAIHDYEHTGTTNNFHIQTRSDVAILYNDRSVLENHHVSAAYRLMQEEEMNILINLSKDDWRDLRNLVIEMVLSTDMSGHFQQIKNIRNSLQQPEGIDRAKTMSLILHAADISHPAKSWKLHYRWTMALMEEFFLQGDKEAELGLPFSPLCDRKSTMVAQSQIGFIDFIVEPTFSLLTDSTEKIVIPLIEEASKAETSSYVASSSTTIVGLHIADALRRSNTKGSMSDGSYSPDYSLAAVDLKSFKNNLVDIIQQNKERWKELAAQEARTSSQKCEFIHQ
PDE1C, sequence (Q14123 whole entry): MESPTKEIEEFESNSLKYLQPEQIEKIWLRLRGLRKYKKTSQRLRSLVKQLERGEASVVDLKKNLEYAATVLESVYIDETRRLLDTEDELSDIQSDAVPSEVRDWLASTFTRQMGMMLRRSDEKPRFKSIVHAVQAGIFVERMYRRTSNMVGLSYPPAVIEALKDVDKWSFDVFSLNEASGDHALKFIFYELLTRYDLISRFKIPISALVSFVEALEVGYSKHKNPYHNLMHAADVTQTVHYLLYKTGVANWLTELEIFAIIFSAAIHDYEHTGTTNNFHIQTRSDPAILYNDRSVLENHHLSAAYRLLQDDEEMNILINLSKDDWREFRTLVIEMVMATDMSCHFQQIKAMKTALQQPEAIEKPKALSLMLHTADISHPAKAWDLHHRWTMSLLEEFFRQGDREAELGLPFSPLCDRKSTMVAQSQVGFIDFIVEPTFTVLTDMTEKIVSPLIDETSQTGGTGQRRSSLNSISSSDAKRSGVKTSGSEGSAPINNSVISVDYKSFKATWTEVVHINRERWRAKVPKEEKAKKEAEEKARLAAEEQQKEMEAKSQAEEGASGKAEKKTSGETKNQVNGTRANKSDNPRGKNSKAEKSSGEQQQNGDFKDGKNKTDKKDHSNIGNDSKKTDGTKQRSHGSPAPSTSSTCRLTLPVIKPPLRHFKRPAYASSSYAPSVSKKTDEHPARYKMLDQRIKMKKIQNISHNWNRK
PDE1B, sequence (Q01064 whole entry): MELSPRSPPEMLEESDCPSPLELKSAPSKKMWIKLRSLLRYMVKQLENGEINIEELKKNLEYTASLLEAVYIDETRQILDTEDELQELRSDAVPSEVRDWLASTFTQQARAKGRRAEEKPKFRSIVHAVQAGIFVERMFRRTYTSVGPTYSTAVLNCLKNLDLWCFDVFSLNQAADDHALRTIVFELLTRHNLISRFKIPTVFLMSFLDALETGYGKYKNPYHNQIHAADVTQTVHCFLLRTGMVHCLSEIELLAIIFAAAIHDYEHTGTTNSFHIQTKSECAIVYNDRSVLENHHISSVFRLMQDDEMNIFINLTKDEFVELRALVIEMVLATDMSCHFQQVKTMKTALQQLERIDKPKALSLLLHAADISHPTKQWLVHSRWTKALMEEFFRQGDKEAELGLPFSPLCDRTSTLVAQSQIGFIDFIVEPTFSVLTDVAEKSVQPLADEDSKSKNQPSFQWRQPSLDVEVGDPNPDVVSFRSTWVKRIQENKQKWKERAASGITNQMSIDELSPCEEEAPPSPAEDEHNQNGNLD

On to `O=c1c2cnn(C3CCCC3)c2nc2n1CCC(c1ccc(Cl)cc1)N2` (stereo not drawn) [Example 4], for which the IC50 is 1 to 10 µM at PDE1A (PDE 1A3), less than 1 µM at PDE1B and 1000 to 10000 nM on PDE1C.
As to `CC(C)c1ncc2c(=O)n3c(nn12)N[C@@H](c1ccc(Cl)cc1)CC3` [Example 18, (2R)-2-(4-Chlorophenyl)-9-isopropyl-1,2,3,4-tetrahydro-6H-imidazo[5,1-f]pyrimido[2,1-c][1,2,4]triazin-6-one], the IC50 was less than 1 µM against PDE1A (PDE 1A3), less than 1 µM on PDE1B and 1000 to 10000 nM on PDE1C.
For `CC(C)n1ncc2c(=O)n3c(nc21)N[C@@H](c1ccc(Cl)cc1)CC3` [Example 27], the IC50 at PDE1A (PDE 1A3) was less than 1 µM; at PDE1B it was less than 1 µM; on PDE1C, 1000 to 10000 nM.
Consider `CC(C)n1ncc2c(=O)n3c(nc21)NC(c1ccc(C(F)(F)F)cc1)CC3` (stereo not drawn) [Example 29], for which the half-maximal inhibitory concentration (IC50) was less than 1 µM on PDE1A (PDE 1A3), less than 1 µM against PDE1B and 1000 to 10000 nM against PDE1C.
As for `CC(C)c1ncc2c(=O)n3c(nn12)NC(c1ccc(Cl)cc1)CC3` (stereo not drawn) [Example 46], the figures for the IC50 against PDE1A (PDE 1A3), against PDE1B and against PDE1C were 10 to 100 µM, less than 1 µM and 1000 to 10000 nM, respectively.
Take `CC(C)c1ncc2c(=O)n3c(nn12)NCCC3` [Example 52]: the IC50 on PDE1A (PDE 1A3) was 1 to 10 µM; against PDE1B, less than 1 µM; on PDE1C it was 1000 to 10000 nM.
Consider `O=c1c2cnc(C3CCOCC3)n2nc2n1CCC(c1ccc(Cl)cc1)N2` (stereo not drawn) [Example 55], for which the IC50 against PDE1A (PDE 1A3) is less than 1 µM; against PDE1B, less than 1 µM; on PDE1C, 1000 to 10000 nM.
As for `COc1ccc(C2CCn3c(nn4c(C5CCOCC5)ncc4c3=O)N2)cc1` (stereo not drawn) [Example 57], the results for the IC50 on PDE1A (PDE 1A3), against PDE1B and against PDE1C were less than 1 µM, less than 1 µM and less than 1000 nM, respectively.
Regarding `O=c1c2cnc(C3CCCC3)n2nc2n1CC[C@H](c1ccc(Cl)cc1)N2` [Example 61], the IC50 against PDE1A (PDE 1A3) is less than 1 µM; at PDE1B it was less than 1 µM; on PDE1C it was less than 1000 nM.
Turning to `O=c1c2cnc(C3CCC3)n2nc2n1CC[C@H](c1ccc(Cl)cc1)N2` [Example 65], the IC50 was less than 1 µM on PDE1A (PDE 1A3), less than 1 µM on PDE1B and less than 1000 nM against PDE1C.
Consider `O=c1c2cnc(C3CCOCC3)n2nc2n1CC[C@H](c1ccc(Cl)cc1)N2` [Example 69, (2R)-2-(4-Chlorophenyl)-9-(tetrahydro-2H-pyran-4-yl)-1,2,3,4-tetrahydro-6H-imidazo[5,1-f]pyrimido[2,1-c][1,2,4]triazin-6-one], for which the IC50 at PDE1A (PDE 1A3) was less than 1 µM; at PDE1B, less than 1 µM; at PDE1C, less than 1000 nM.
In the case of `Cc1ccc([C@H]2CN3C(=O)c4cnc(C(C)C)n4NC3=N2)cc1` [Example 96, (2S)-8-Isopropyl-2-(4-methylphenyl)-2,10-dihydro-3H,5H-diimidazo[2,1-c:5′,1′-f][1,2,4]triazin-5-one], the figures for the concentration for half-maximal inhibition (IC50) against PDE1A (PDE 1A3), on PDE1B and against PDE1C were less than 1 µM, less than 1 µM and less than 1000 nM, respectively.
Consider `O=c1c2cnc(C3CCOCC3)n2nc2n1C[C@H](c1ccc(Cl)cc1)N2` [Example 139], for which the 50% inhibitory concentration (IC50) against PDE1A (PDE 1A3) is less than 1 µM; at PDE1B it was less than 1 µM; against PDE1C it was 1000 to 10000 nM.
With `CC(C)n1ncc2c(=O)n3c(nc21)N[C@@H](c1ccc(Cl)cc1)C3` [Example 144], the IC50 was less than 1 µM at PDE1A (PDE 1A3), less than 1 µM at PDE1B and less than 1000 nM against PDE1C.
`COc1ccc([C@H]2Cn3c(nn4c(C5CCOCC5)ncc4c3=O)N2)cc1` [Example 151, (2S)-2-(4-Methoxyphenyl)-8-(tetrahydro-2H-pyran-4-yl)-2,10-dihydro-3H,5H-diimidazo[2,1-c:5′,1′-f][1,2,4]triazin-5-one]: the figures for the IC50 against PDE1A (PDE 1A3), on PDE1B and against PDE1C were less than 1 µM, less than 1 µM and less than 1000 nM, respectively.
Take `O=c1c2cnc(C3COC3)n2nc2n1CC[C@H](c1ccc(Cl)cc1)N2` [Example 165]: the IC50 on PDE1A (PDE 1A3) was less than 1 µM; against PDE1B, less than 1 µM; at PDE1C, 1000 to 10000 nM.
